Measured values as given in patent US6291247A, “Methods of screening for factors that disrupt neurotrophin conformation and reduce neurotrophin biological activity” (priority 1996, dated 2001).
Bridges are numbered along the chain shown (N, C = ends).

Assays:
p75^NTR and TrkA [1] = test: Binding of 125I-NGF to PC12 cells (p75NTR + TrkA); set-up: species or system rat; details: above 100 μM
Method: (§1) PC12 cells were grown in RPMI with 10% heat inactivated donor horse serum and 5% fetal calf serum. […] The tubes were incubated for 2 hr at 4° C. and 100 μl aliquots (providing triplicate data points for each sample) were transferred to 400 μl microcentrifuges containing 200 μl of 10% glycerol in HKR. Tubes were centrifuged for 2 minutes at 5,000 rpm, the tip containing the cell pellet cut off and radioactivity bound to the cells was determined.

p75^NTR and TrkA [2] = tested on: T1, p75^NTR and TrkA; test: Binding of 125I-NGF to PC12 cells (p75NTR + TrkA); set-up: species or system rat; details: 100 μM; CaEDTA together with Zn2+
T1 construct: these cells express both NGF receptor types; endogenous in cells; host or cells: PC12 rat pheochromocytoma cells
Method: as §1
T1 sequence (P01139 122-239): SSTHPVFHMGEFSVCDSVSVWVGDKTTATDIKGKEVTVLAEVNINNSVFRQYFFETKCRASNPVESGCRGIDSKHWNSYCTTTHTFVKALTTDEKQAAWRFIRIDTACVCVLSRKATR

p75^NTR and TrkA [3] = molecular target: T2, p75^NTR and TrkA (Mus musculus, UniProt P01139); test: Binding of 125I-NGF to PC12 cells (p75NTR + TrkA); set-up: species or system rat; details: 120 min; for steady-state specific binding of 125I-NGF (0.5 nM) to p75NTR and TrkA: ± SEM
T2 construct: these cells express both NGF receptor types; endogenous in cells; host or cells: PC12 rat pheochromocytoma cells
Method: as §1

p75 = test: Affinity cross-linking of 125I-NGF to p75 on PC12 cells; format: binding, rat; details: for Inhibition of p75 Interaction: 0.1 nM 125I-NGF, PC12 cells
Method: (§2) The ability of the peptides under study to interfere with binding of NGF to NGF receptors was evaluated by analysis of inhibition of the chemical cross-linking of ^251 I-NGF to the common neurotrophin receptor p75 (Chao, J. Neurobiol. 25:1373-1385 (1994)) and the specific NGF receptor TrkA (Barbacid, J. Neurobiol. 25: 1386-1403 (1994)). Immunoprecipitation and polyacrylamide gel electrphoresis of cross linked receptors allowed identification of both receptors, as shown in FIG. 7A. […] At concentrations of 200 μM, neither R11(l) nor R11(m) were able to inhibit greater than 50% of the observed ^125 I-labelling.
(§3) The ability of the peptides derived from the 68-58/108-110 region of NGF to antagonize NGF interaction with the p75 and TrkA receptors was determined The peptides tested were bicyclic (BC) 68-58/108-110, cyclic (C) 68-58/108-110, and linear (L) 68-58/108-110, each of which are illustrated in FIGS. 2 and 5D
Receptor cross-linking studies were performed on PC12 rat pheochromocytoma cells (ATCC CRL 1721; Greene et al., Proc. Natl. Acad. Sci. USA 73: 2424-2432 (1976)) which were maintained in RPMI1640 (Gibco) supplemented with 10% fetal calf serum (Gibco). Cells were harvested by incubation and trituration in Ca^2+ and Mg^2+ free Gey's balanced salt solution, washed and suspended in 10 mM HEPES buffer (pH 7.35) containing 125 mM NaCl, 4.8 mM KCl, 1.3 mM CaCl2, […], 1.2 mM KH2 PO4, 1 g/L sucrose and 1 g/L bovine serum albumin (HEPES Krebs Ringer buffer, HKR buffer) at 10^6 cells/mL. Subsequent procedures were carried out at 4° C. unless otherwise noted.
For receptor crosslinking, ^125 I-NGF was prepared by the method of Sutter et al. (J. Biol. Chem. 254: 5972-5982 (1979)) from NGF isolated from mouse submaxillary gland (as described in Mobley et al., Biochemistry 15:1543 (1976)) obtained from Cedarlane.
[…] Control PC12 cells were incubated in HKR buffer in the presence of ^125 I-NGF only (no NGF peptide).
Receptor proteins were cross-linked with either 0.4 mM bis(sulfosuccinimidyl)suberate (BS^3, Pierce) for TrkA, or a combination of 2 mM […] (EDC) and 2 mM N-hydroxysulfosuccinimide (S-NHS) for p75^NTR as indicated. All cross-linking agents (from Pierce) were dissolved in water and added in 20 μL aliquots and the reaction allowed to proceed for 30 min at 25° C. On completion of the cross-linking reaction, the cells were washed three times in HKR buffer with BSA at 4° C. to remove excess free radiolabelled ligand and reagents. The cells were solubilized in 100 μL SDS sample buffer Samples were separated on a modified Laemmli discontinues acrylamide gel system (Laemmli, Nature 227:680 (1970)) using 4% SDS-PAGE stacking gel and a gradient urea polyacrylamide separating gel ranging from 4.5% acrylamide/18% urea to 7.5% acrylamide/48% urea. The gels were fixed and processed for autoradiography using -70° C. exposure with Kodak XAR film and manual processing (FIG. 7B).
For positive receptor identification, immunoprecipitation studies were performed. Samples of 10^7 cells in 1 mL HKR buffer were cross-linked under the conditions described above, washed in HKR buffer and solubilized in non-denaturing lysis buffer (1% NP40, 10% glycerol, 1 mM phenylmethylsulfonylfluoride, 10 μg/mL leupeptin and 0.5 mM o-vanadate in Tris-buffered saline) (Kaplan et al., Nature 350:1 158-160 (1991)). The solutions were clarified by centrifugation and immunoprecipitated with either mAb 192 (monoclonal antibody for p75; Cedarlane) or rabbit anti-TrkA, which had been raised against a COOH-terminal peptide of TrkA. The ^125 I-NGF cross-linked receptor-antibody complexes were isolated using 50 μL of a 50% solution of rabbit anti-mouse agarose (Sigma; for mAb 192) or protein A-Sepharose (Pharmcia; for anti-Trk) equilibrated in lysis buffer. Immunoprecipitates were washed three times in lysis buffer and the pellets denatured in SDS reducing sample buffer. […]

TrkA = molecular target: T3, TrkA; test: Affinity cross-linking of 125I-NGF to TrkA on PC12 cells; format: binding, rat; details: 200 μM; result in words
T3 construct: Receptor cross-linking studies were performed on PC12 rat pheochromocytoma cells; endogenous in cells; host or cells: PC12 rat pheochromocytoma cells (ATCC CRL 1721)
Method: as §2, §3
Receptor cross-linking studies were performed on PC12 rat pheochromocytoma cells (ATCC CRL 1721; Greene et al., Proc. Natl. Acad. Sci. USA 73: 2424-2432 (1976)) which were maintained in RPMI1640 (Gibco) supplemented with 10% fetal calf serum (Gibco). […]

T2 sequence (P01139 122-239): as above
T3 sequence (P01139 122-239): as above

Row | Compound | Non-specific binding of 125I-NGF (p75^NTR and TrkA [1]) | Inhibition of 125I-NGF binding (p75^NTR and TrkA [2]) | steady-state specific binding of 125I-NGF (0.5 nM) to p75NTR and TrkA (p75^NTR and TrkA [3]; 10 μM) [% Control] | steady-state specific binding of 125I-NGF (0.5 nM) to p75NTR and TrkA (p75^NTR and TrkA [3]; 30 μM) [% Control] | steady-state specific binding of 125I-NGF (0.5 nM) to p75NTR and TrkA (p75^NTR and TrkA [3]; 50 μM) [% Control] | Total Binding to PC12 cells (p75^NTR and TrkA [3]; 100 μM, 125I-NGF) [% control] | steady-state specific binding of 125I-NGF (0.5 nM) to p75NTR and TrkA (p75^NTR and TrkA [3]; 100 μM) [% Control] | Inhibition of p75 Interaction (p75; 20 μM peptide) | Inhibition of p75 Interaction (p75; 200 μM peptide, listed as BC) | Covalent attachment of 125I-NGF to receptor (p75) (p75; 200 μM, result in words) | Covalent attachment of 125I-NGF to receptor (TrkA) (TrkA)
1 | [Zn+2] [Zn^2+] | altered non-specific binding | effectively blocked binding | 88 ± 13 | 82 ± 10 | 44 ± 13 | 21 ± 5 | 19 ± 9 | – | – | – | –
2 | NH2 -Cys-Gly-Ser-Glu-Val-Pro-Asn-Ser-Ala-Arg-Cys-Cys-Val-Cys-OH (H-CGSEVPNSARCCVC-OH; disulfide 1-14, 11-12) [R11, bicyclic peptide of NGF residues 68-58/108-110, two disulfide bonds] | – | – | – | – | – | – | – | + (indicates less than 50% inhibition) | ++ (indicates greater than 50% inhibition) | effectively prevented the covalent attachment | effectively prevented the covalent attachment
